Experimental data reported in ChEMBL document CHEMBL5321210, “N-adamantyl-anthranil amide derivatives: New selective ligands for the cannabinoid receptor subtype 2 (CB2R)” (Eur J Med Chem, 2023).
Activity calls are given as the source filed them. No cut-off for these calls is given here.

Key:
[1] = test system: THP-1; assay: Antiinflammatory activity in LPS-activated PMA-differentiated human THP-1 macrophages assessed as decrease in IL-1beta production at 1 to 10 uM incubated for 24 hrs in the presence of JTE907 by ELISA coupled qRT-PCR analysis; type: functional, cell-based; conditions: dose 1-10 µM
[2] = test system: THP-1; assay: Antiinflammatory activity in LPS-activated PMA-differentiated human THP-1 macrophages assessed as increase in IL-10 production at 1 to 10 uM incubated for 24 hrs in the presence of JTE907 by ELISA coupled qRT-PCR analysis; type: functional, cell-based; conditions: dose 1-10 µM
[3] = biological target: Cannabinoid receptor 2 (Homo sapiens, UniProt P34972); assay: Agonist activity at human CB2 receptor expressed in CHO-K1 cells assessed as inhibition of NKH-477 induced cAMP production incubated for 30 mins by luminescence based analysis; type: functional, cell-based
[4] = test system: THP-1; assay: Antiinflammatory activity in PMA-differentiated human THP-1 macrophages assessed as decrease in IFN-gamma production at 1 to 10 uM incubated for 24 hrs in the presence of JTE907 by ELISA coupled qRT-PCR analysis; type: functional, cell-based; conditions: dose 1-10 µM
[5] = test system: THP-1; assay: Antiinflammatory activity in PMA-differentiated human THP-1 macrophages assessed as increase in IL-4 production at 1 to 10 uM incubated for 24 hrs by ELISA coupled qRT-PCR analysis; type: functional, cell-based; conditions: dose 1-10 µM
[6] = test system: THP-1; assay: Antiinflammatory activity in human THP-1 monocytes assessed as decrease in IL-1beta production incubated for 24 hrs by ELISA coupled qRT-PCR analysis; type: functional, cell-based; conditions: dose 1-10 µM
[7] = test system: THP-1; assay: Antiinflammatory against LPS-activated human THP-1 monocytes assessed as decrease in IL-1beta production at 1 to 10 uM incubated for 24 hrs in the presence of JTE907 by ELISA coupled qRT-PCR analysis; type: functional, cell-based; conditions: dose 1-10 µM
[8] = test system: THP-1; assay: Antiinflammatory activity in PMA-differentiated human THP-1 macrophages assessed as increase in IL-10 production at 1 to 10 uM incubated for 24 hrs by ELISA coupled qRT-PCR analysis; type: functional, cell-based; conditions: dose 1-10 µM
[9] = test system: THP-1; assay: Antiinflammatory activity in human THP-1 monocytes assessed as increase in IL-4 production incubated for 24 hrs by ELISA coupled qRT-PCR analysis; type: functional, cell-based; conditions: dose 1-10 µM
[10] = test system: THP-1; assay: Antiinflammatory activity in human THP-1 monocytes assessed as increase in IL-10 production at 1 to 10 uM incubated for 24 hrs in the presence of JTE907 by ELISA coupled qRT-PCR analysis; type: functional, cell-based; conditions: dose 1-10 µM
[11] = test system: THP-1; assay: Antiinflammatory activity in PMA-differentiated human THP-1 macrophages assessed as increase in IL-10 production at 1 to 10 uM incubated for 24 hrs in the presence of JTE907 by ELISA coupled qRT-PCR analysis; type: functional, cell-based; conditions: dose 1-10 µM
[12] = test system: THP-1; assay: Antiinflammatory activity in LPS-activated PMA-differentiated human THP-1 macrophages assessed as increase in IL-4 production at 1 to 10 uM incubated for 24 hrs in the presence of JTE907 by ELISA coupled qRT-PCR analysis; type: functional, cell-based; conditions: dose 1-10 µM
[13] = test system: THP-1; assay: Antiinflammatory against LPS-activated human THP-1 monocytes assessed as decrease in IFN-gamma production at 1 to 10 uM incubated for 24 hrs in the presence of JTE907 by ELISA coupled qRT-PCR analysis; type: functional, cell-based; conditions: dose 1-10 µM
[14] = test system: THP-1; assay: Antiinflammatory activity in human THP-1 monocytes assessed as decrease in IL-1beta production at 10 uM incubated for 24 hrs in the presence of JTE907 by ELISA coupled qRT-PCR analysis; type: functional, cell-based
[15] = test system: THP-1; assay: Antiinflammatory activity in human THP-1 monocytes assessed as increase in IL-10 production at 10 uM incubated for 24 hrs by ELISA coupled qRT-PCR analysis; type: functional, cell-based
[16] = test system: THP-1; assay: Antiinflammatory activity in PMA-differentiated human THP-1 macrophages assessed as increase in IL-10 production at 10 uM incubated for 24 hrs by ELISA coupled qRT-PCR analysis; type: functional, cell-based
[17] = test system: THP-1; assay: Antiinflammatory activity in human THP-1 monocytes assessed as decrease in IFN-gamma production at 10 uM incubated for 24 hrs in the presence of JTE907 by ELISA coupled qRT-PCR analysis; type: functional, cell-based
[18] = test system: THP-1; assay: Antiinflammatory activity in LPS-activated PMA-differentiated human THP-1 macrophages assessed as increase in IL-4 production at 10 uM incubated for 24 hrs in the presence of JTE907 by ELISA coupled qRT-PCR analysis; type: functional, cell-based
[19] = test system: THP-1; assay: Antiinflammatory activity against LPS-activated human THP-1 monocytes assessed as decrease in IL-1beta production at 10 uM incubated for 24 hrs in the presence of N-(adamantan-1-yl)-4-(pentylamino)-[1,1'-biphenyl]-3-carboxamide by ELISA coupled qRT-PCR analysis; type: functional, cell-based
[20] = test system: THP-1; assay: Antiinflammatory against LPS-activated human THP-1 monocytes assessed as decrease in IL-6 production at 10 uM incubated for 24 hrs in the presence of JTE907 by ELISA coupled qRT-PCR analysis; type: functional, cell-based
[21] = test system: THP-1; assay: Antiinflammatory activity in human THP-1 monocytes assessed as increase in IL-4 production at 10 uM incubated for 24 hrs in the presence of JTE907 by ELISA coupled qRT-PCR analysis; type: functional, cell-based
[22] = test system: THP-1; assay: Antiinflammatory activity against LPS-activated human THP-1 monocytes assessed as increase in IL-10 production at 10 uM incubated for 24 hrs in the presence of N-(adamantan-1-yl)-4-(pentylamino)-[1,1'-biphenyl]-3-carboxamide by ELISA coupled qRT-PCR analysis; type: functional, cell-based
[23] = test system: THP-1; assay: Antiinflammatory activity against LPS-activated PMA-differentiated human THP-1 monocytes assessed as decrease in IL-1beta production at 10 uM incubated for 24 hrs in the presence of N-(adamantan-1-yl)-4-(pentylamino)-[1,1'-biphenyl]-3-carboxamide by ELISA coupled qRT-PCR analysis; type: functional, cell-based
[24] = test system: THP-1; assay: Antiinflammatory activity against LPS-activated PMA-differentiated human THP-1 macrophages assessed as decrease in IL-6 production at 10 uM incubated for 24 hrs by ELISA coupled qRT-PCR analysis relative to control; type: functional; set-up: scale not given: the % may be the effect or the level left
[25] = test system: THP-1; assay: Antiinflammatory activity in human THP-1 monocytes assessed as decrease in IL-6 production at 10 uM incubated for 24 hrs in the presence of JTE907 by ELISA coupled qRT-PCR analysis; type: functional, cell-based
[26] = test system: THP-1; assay: Antiinflammatory activity in PMA-differentiated human THP-1 monocytes assessed as decrease in IFN-gamma production at 10 uM incubated for 24 hrs in the presence of N-(adamantan-1-yl)-4-(pentylamino)-[1,1'-biphenyl]-3-carboxamide by ELISA coupled qRT-PCR analysis; type: functional, cell-based
[27] = test system: THP-1; assay: Antiinflammatory activity in LPS-activated PMA-differentiated human THP-1 macrophages assessed as decrease in IFN-gamma production at 10 uM incubated for 24 hrs in the presence of JTE907 by ELISA coupled qRT-PCR analysis; type: functional, cell-based
[28] = test system: THP-1; assay: Antiinflammatory activity against LPS-activated PMA-differentiated human THP-1 macrophages assessed as decrease in IFN-gamma production at 10 uM incubated for 24 hrs by ELISA coupled qRT-PCR analysis relative to control; type: functional; set-up: scale not given: the % may be the effect or the level left

Cannabinoid receptor 2, sequence (P34972 whole entry): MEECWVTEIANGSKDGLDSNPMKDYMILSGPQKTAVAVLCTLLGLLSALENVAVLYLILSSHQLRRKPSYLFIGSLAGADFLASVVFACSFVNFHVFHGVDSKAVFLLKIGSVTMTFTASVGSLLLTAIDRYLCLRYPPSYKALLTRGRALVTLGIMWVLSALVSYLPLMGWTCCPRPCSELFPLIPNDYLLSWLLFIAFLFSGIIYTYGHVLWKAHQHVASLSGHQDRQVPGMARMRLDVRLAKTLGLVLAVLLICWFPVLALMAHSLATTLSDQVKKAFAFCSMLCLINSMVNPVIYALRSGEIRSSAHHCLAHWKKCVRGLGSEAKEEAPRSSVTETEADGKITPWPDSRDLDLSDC

## CCCCCNc1ccccc1C(=O)NC12CC3CC(CC(C3)C1)C2
[1]
  Activity: inactive
[2]
  Activity: inactive
[3]
  EC50: 560 nM
[4]
  Activity: inactive
[5]
  Activity: Active
[6]
  Activity: Dose-Dependent Effect
[7]
  Activity: inactive
[8]
  Activity: Active
[9]
  Activity: Dose-Dependent Effect
[10]
  Activity: inactive
[11]
  Activity: inactive
[12]
  Activity: inactive
[13]
  Activity: inactive

## O=C(NC1CCCCC1)c1cn(CCN2CCOCC2)c2cc(Cl)ccc2c1=O
[14]
  Activity: inactive
[15]
  Activity: Active
[16]
  Activity: Active
[17]
  Activity: inactive
[18]
  Activity: inactive
[19]
  Activity: inactive
[20]
  Activity: inactive
[21]
  Activity: inactive
[22]
  Activity: inactive
[23]
  Activity: inactive
[24]
  Activity: 70%
[25]
  Activity: inactive
[26]
  Activity: inactive
[27]
  Activity: inactive
[28]
  Activity: 70%
